“Also recorded” adds a separate entry of the source. Where two headings read alike, the source gives them in different places.
Key:
recombinant PDK-1 = target: T1, recombinant PDK-1 (Homo sapiens, UniProt O15530); experiment: PDK-1 kinase activity (Upstate kit, SGK-coupled, cell-free); assay type: biochemical; settings: ratio of IC50 values
T1 construct: purchased Upstate (Lake Placid, N.Y.)
T1 sequence (O15530 1-556): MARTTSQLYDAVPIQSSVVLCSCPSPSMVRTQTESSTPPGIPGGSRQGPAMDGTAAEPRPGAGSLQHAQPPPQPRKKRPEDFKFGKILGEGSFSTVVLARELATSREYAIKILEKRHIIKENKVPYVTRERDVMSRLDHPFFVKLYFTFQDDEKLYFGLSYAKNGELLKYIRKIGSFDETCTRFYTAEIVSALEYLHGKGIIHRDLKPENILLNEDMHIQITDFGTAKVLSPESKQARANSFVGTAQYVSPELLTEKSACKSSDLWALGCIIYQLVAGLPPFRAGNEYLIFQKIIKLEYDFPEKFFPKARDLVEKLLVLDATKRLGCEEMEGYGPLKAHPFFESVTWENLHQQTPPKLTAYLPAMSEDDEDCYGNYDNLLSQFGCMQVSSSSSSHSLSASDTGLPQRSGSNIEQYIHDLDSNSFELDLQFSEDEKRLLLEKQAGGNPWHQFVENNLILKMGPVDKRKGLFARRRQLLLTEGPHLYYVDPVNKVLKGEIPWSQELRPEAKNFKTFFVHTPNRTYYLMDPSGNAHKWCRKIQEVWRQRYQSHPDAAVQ
Description: PDK-1 kinase activity This in vitro assay was performed using a PDK-1 kinase assay kit (Upstate, Lake Placid, N.Y.) according to the vendor's instructions. This cell-free assay is based on the ability of recombinant PDK-1, in the presence of DMSO vehicle or the test agent, to activate its downstream kinase serum- and glucocorticoid-regulated kinase (SGK.) which, in turn, phosphorylates the Akt/SGK-specific peptide substrate RPRAATF with [γ-^32]-ATP. […] The reported values represent the means of two independent determinations.

immunoprecipitated Akt = experiment: Direct inhibition of immunoprecipitated Akt kinase activity; assay type: biochemical, human
[1] = test system: sixty human tumor cell lines; experiment: NCI DTP sixty cell line assay, means over the panel; assay type: cell-based
Description: (§1) Screening of compounds 70 and 71 against several cancer cell lines The human tumor cell lines of the cancer screening panel are grown in RPMI 1640 medium containing 5% fetal bovine serum and 2 mM L-glutamine. For a typical screening experiment, cells are inoculated into 96 well microtiter plates in 100 μL at plating densities ranging from 5,000 to 40,000 cells/well depending on the doubling time of individual cell lines. After cell inoculation, the microtiter plates are incubated at 37° C., 5% CO2, 95% air and 100% relative humidity for 24 h prior to addition of experimental drugs.
(§2) After 24 h, two plates of each cell line are fixed in situ with TCA, to represent a measurement of the cell population for each cell line at the time of drug addition (Tz). Experimental drugs are solubilized in dimethyl sulfoxide at 400-fold the desired final maximum test concentration and stored frozen prior to use. At the time of drug addition, an aliquot of frozen concentrate is thawed and diluted to twice the desired final maximum test concentration with complete medium containing 50 μg/ml gentamicin. Additional four, 10-fold or ½ log serial dilutions are made to provide a total of five drug concentrations plus control. Aliquots of 100 μl of these different drug dilutions are added to the appropriate microtiter wells already containing 100 μl of medium, resulting in the required final drug concentrations.
(§3) Following drug addition, the plates are incubated for an additional 48 h at 37° C., 5% CO2, 95% air, and 100% relative humidity. For adherent cells, the assay is terminated by the addition of cold TCA. Cells are fixed in situ by the gentle addition of 50 μl of cold 50% (w/v) TCA (final concentration, 10% TCA) and incubated for 60 minutes at 4° C. The supernatant is discarded, and the plates are washed five times with tap water and air dried. Sulforhodamine B (SRB) solution (100 μl) at 0.4% (w/v) in 1% acetic acid is added to each well, and plates are incubated for 10 minutes at room temperature. After staining, unbound dye is removed by washing five times with 1% acetic acid and the plates are air dried. Bound stain is subsequently solubilized with 10 mM trizma base, and the absorbance is read on an automated plate reader at a wavelength of 515 nm. For suspension cells, the methodology is the same except that the assay is terminated by fixing settled cells at the bottom of the wells by gently adding 50 μl of 80% TCA (final concentration, 16% TCA). Using the seven absorbance measurements [time zero, (Tz), control growth, (C), and test growth in the presence of drug at the five concentration levels (Ti)], the percentage growth is calculated at each of the drug concentrations levels. Percentage growth inhibition is calculated as: [(Ti−Tz)/(C−Tz)]×100 for concentrations for which Ti>/=Tz [(Ti−Tz)/Tz]×100 for concentrations for which Ti<Tz
(§4) Three dose response parameters are calculated for each experimental agent. […] The drug concentration resulting in total growth inhibition (TGI) is calculated from Ti=Tz. […] Values are calculated for each of these three parameters if the level of activity is reached; however, if the effect is not reached or is exceeded, the value for that parameter is expressed as greater or less than the maximum or minimum concentration tested.

NCI-H322M = experiment: NCI DTP screen (SRB), Non-Small Cell Lung Cancer; assay type: cell-based; settings: NCI-H322H
Description: as §1, §2, §3, §4

U251 = experiment: NCI DTP screen (SRB), CNS Cancer; assay type: cell-based, human; settings: Log10 Concentration −4.0
Description: Screening of compounds 70 and 71 against several cancer cell lines The human tumor cell lines of the cancer screening panel are grown in RPMI 1640 medium containing 5% fetal bovine serum and 2 mM L-glutamine. For a typical screening experiment, cells are inoculated into 96 well microtiter plates in 100 μL at plating densities ranging from 5,000 to 40,000 cells/well depending on the doubling time of individual cell lines. After cell inoculation, the microtiter plates are incubated at 37° C., 5% CO2, 95% air and 100% relative humidity for 24 h prior to addition of experimental drugs. […]
Following drug addition, the plates are incubated for an additional 48 h at 37° C., 5% CO2, 95% air, and 100% relative humidity. […] Bound stain is subsequently solubilized with 10 mM trizma base, and the absorbance is read on an automated plate reader at a wavelength of 515 nm. […] Using the seven absorbance measurements [time zero, (Tz), control growth, (C), and test growth in the presence of drug at the five concentration levels (Ti)], the percentage growth is calculated at each of the drug concentrations levels. Percentage growth inhibition is calculated as: [(Ti−Tz)/(C−Tz)]×100 for concentrations for which Ti>/=Tz [(Ti−Tz)/Tz]×100 for concentrations for which Ti<Tz
Three dose response parameters are calculated for each experimental agent. […]

LOX IMVI = experiment: NCI DTP screen (SRB), Melanoma; assay type: cell-based; settings: LOX IKVI
Description: as §1, §2, §3, §4

MALNE-3M = experiment: NCI DTP screen (SRB), Melanoma; assay type: cell-based; settings: MALME-3M
RXP 393 = experiment: NCI DTP screen (SRB), Renal Cancer; assay type: cell-based, human
Description: as §1, §2, §3, §4

UO-31 = experiment: NCI DTP screen (SRB), Renal Cancer; assay type: cell-based, human; settings: UD-31
Description: as §1, §2, §3, §4

MCP7 = experiment: NCI DTP screen (SRB), Breast Cancer; assay type: cell-based, human; settings: MCF7
Description: as §1, §2, §3, §4

HS 57BT = experiment: NCI DTP screen (SRB), Breast Cancer; assay type: cell-based; settings: HS S78T
Description: as §1, §2, §3, §4

[2] = in vivo
[3] = Preliminary animal studies, daily oral administration; settings: daily oral administration for one month; data not shown
PC-3 cells [4] = experiment: Cell viability analysis (MTT) in PC-3 cells; assay type: cell-based, human
Description: (§5) Cell Culture PC-3 (p53−/−) human androgen-nonresponsive prostate cancer cells were purchased from the American […] (Manassas, Va.). Cells were cultured in RPMI 1640 medium (Gibco, Grand Island, N.Y.) supplemented with 10% fetal bovine serum (FBS; Gibco) at 37° C. in a humidified incubator containing 5% CO2.
Cell viability analysis The effect of 4-[5-(4-methylphenyl)-3-(trifluoromethyl)-1H-pyrazol-1-yl]benzenesulfonamide and its derivatives on PC-3 cell viability was assessed by using the MTT {[3-(4,5-dimethylthiazol-2-yl)-2,5-diphenyl-2H-tetrazolium bromide]} assay in six replicates. Cells were grown in 10% FBS-supplemented RPMI 1640 medium in 96-well, flat bottomed plates for 24 h, and were exposed to various concentrations of compounds 1-36 dissolved in DMSO (final concentration ≦0.1%) in 1% serum-containing RPMI 1640 medium for different time intervals. Controls received DMSO vehicle at a concentration equal to that in drug-treated cells. The medium was removed, replaced by 200 μl of 0.5 mg/ml of MTT in 10% FBS-containing RPMI-1640 medium, and cells were incubated in the CO2 incubator at 37° C. for 2 h. Supernatants were removed from the wells, and the reduced MTT dye was solubilized in 200 μL/well DMSO. Absorbance at 570 nm was determined on a plate reader.

PC-3 cells [5] = experiment: Cell proliferation (Coulter counter) in PC-3 cells; assay type: cell-based, human; settings: 1 μM; 10% FBS-supplemented RPMI 1640 medium
Description: as §5
Cell proliferation PC-3 cells were seeded into six-well plates at 50,000 cells/well in 10% FBS-containing RPMI 1640 medium. Following a 24 h attachment period, cells were treated in triplicate with the indicated concentration of compounds 1-36 or DMSO vehicle in 10% FBS-containing RPMI-1640 medium. At different time intervals, cells were harvested by trypsinization, and numerated using a Coulter counter model Z1 D/T (Beckman Coulter, Fullerton, Calif.).

Akt = experiment: Immunoprecipitated Akt kinase assay from drug-treated PC-3 cells (intracellular Akt activation); assay type: cell-based, human; settings: PC-3 cells treated 2 h, read-out: IC50 for inhibiting intracellular Akt activation
Description: Immunoprecipitated Akt kinase assay Akt immunoprecipitation was carried out according to a modified, published procedure. PC-3 cells were treated with DMSO vehicle or the test agents at the indicated concentrations for 2 h and then lysed at 4° C for 1 h in buffer A containing 50 mM Tris-HCl, pH 7.5, 1% Triton X-100, 1 mM EDTA, 1 mM EGTA, 50 mM sodium fluoride, 10 mM sodium β-glycerophosphate. 0.1% 2-mercaptoethanol, 0.1 mM phenylmethylsulfonyl fluoride, and 1 μg/mL each of aprotinin, pepstatin, and leupeptin. Cell lysates were centrifuged at 10,000 g for 5 min, and the supernatant was treated with anti-Akt at 4° C. for 60 min., followed by protein G-agarose beads for additional 60 min. The immunoprecipitate was used to analyze Akt kinase activity by using the Akt/SGK-specific peptide substrate RPRAATF as described above. Values represented the means of two independent determinations.

phospho-473Ser Akt = experiment: Western blot of Akt and phospho-Akt in PC-3 cells; assay type: cell-based, human; settings: 5 μM and above, 2 h
Description: Immunoblotting. The general procedure for the Western blot analysis of Akt and phospho-Akt is described as follows. Cells were washed in PBS, resuspended in SDS sample buffer sonicated by an ultrasonic sonicator for 5 sec, and boiled for 5 min. After brief centrifugation, equivalent protein concentrations from the soluble fractions were resolved in 10% SDS-polyacrylamide gels on a Minigel apparatus, and transferred to a nitrocellulose membrane using a semi-dry transfer cell. The transblotted membrane was washed three times with TBS containing 0.05% Tween 20 (TBST). After blocking with TBST containing 5% nonfat milk for 60 min., the membrane was incubated with the primary antibody at 1:1,000 dilution in TBST-5% low fat milk at 4° C. for 12 h, and was then washed three times with TBST. The membrane was probed with goat anti-rabbit IgG-HRP conjugates (1:1,000) for 1 h at room temperature, and was washed with TBST three times. The immunoblots were visualized by enhanced chemiluminescence.

N=C(N)Nc1ccc(-n2nc(C(F)(F)F)cc2-c2ccc3c(ccc4ccccc43)c2)cc1 [Compound 71, 4-[5-(2-Phenanthrenyl)-3-(trifluoromethyl)-1H-pyrazol-1-yl]-phenyl-guanidine]
increase in PDK-1 inhibition potency over compound 59 (recombinant PDK-1): five-fold
direct inhibitory effect on immunoprecipitated Akt kinase activity (immunoprecipitated Akt): no appreciable direct inhibition
range in which cell growth is completely suppressed in a diverse range of tumor cell lines [1]: 3 to 5 µM
concentration at which many cell lines respond to the growth inhibitory effect ([1]; two-day exposure, 5% FBS-containing medium): ≥ 0.1 µM
GI50 ([1]; two-day treatment, serum-containing medium, read-out: mean GI50 among the sixty cell lines): 1.3 µM
Percent Growth (NCI-H322M; Log10 Concentration −4.0): −59%
Percent Growth (NCI-H322M; Log10 Concentration −5.0): −100%
Percent Growth (U251): −12%
Percent Growth (LOX IMVI; Log10 Concentration −4.0): −53%
Percent Growth (LOX IMVI; Log10 Concentration −5.0): −98%
Percent Growth (MALNE-3M; Log10 Concentration −4.0): −50%
Percent Growth (MALNE-3M; Log10 Concentration −5.0): −87%
Percent Growth (RXP 393; Log10 Concentration −4.0): −4%
Percent Growth (RXP 393; Log10 Concentration −5.0): −61%
Percent Growth (UO-31; Log10 Concentration −4.0): −35%
Percent Growth (UO-31; Log10 Concentration −5.0): −100%
Percent Growth (MCP7; Log10 Concentration −4.0): −49%
Percent Growth (MCP7; Log10 Concentration −5.0): −84%
Percent Growth (HS 57BT; Log10 Concentration −4.0): −38%
Percent Growth (HS 57BT; Log10 Concentration −5.0): −69%
oral absorption [2]: can be orally absorbed
average serum concentrations relative to TGI ([2]; po): average serum concentrations several-fold higher than TGI
toxicity to the animals [3]: little toxicity

4-[5-(2-phenanthrenyl)-3-(trifluoromethyl)-1H-1-yl]benzenesulfonamide [Compound 59]
improvement of IC50 values (PDK-1 and PC-3) over the comparative compound (recombinant PDK-1): five- to six-fold
IC50 (PC-3 cells [4]; 24 h, 1% FBS-containing RPMI 1640 medium, read-out: dose required to induce 50% PC-3 cell death): 5 µM
IC50 (PC-3 cells [4]; inducing apoptotic death in PC-3 cells / PC-3 cell viability, read-out: IC50 PC-3): 5 µM
anti-proliferative activity on PC-3 cell proliferation (PC-3 cells [5]): substantial anti-proliferative activity
IC50 (Akt): 5 µM
Akt dephosphorylation (Western blot) (phospho-473Ser Akt): significant Akt dephosphorylation
direct inhibitory effect on immunoprecipitated Akt kinase activity (immunoprecipitated Akt): Neither compound 59 nor other the other compounds displayed a direct inhibitory effect; also recorded: no appreciable direct inhibition

Reference: patent US20060079566A1, “PDK-1/Akt signaling inhibitors” (priority 2003, published 2006)
